Values after ≈ are worked out from the molar mass of the structure shown. Where a SMILES comes first, the peptide text is derived from it. Bridges are numbered along the chain shown (N, C = ends). [ ]: non-standard residue; d: D form. The star is where a group is joined. dPhe(4-CN) = N#Cc1ccc(C[C@@H](N)C(=O)O)cc1; dPhe(4-NH2) = Nc1ccc(C[C@@H](N)C(=O)O)cc1; X2 = CC[C@H](C)CCCCC(=O)*; dDab = NCC[C@@H](N)C(=O)O; Dab = NCC[C@H](N)C(=O)O; X1 = CCCCCC(=O)CC(=O)*; X3 = CCCCC(=O)CC(=O)*
What was measured:
Assay type in all cases: cell-based
[1] = test system: Acinetobacter baumannii ATCC 19606; details: ATCC 19606
Summary of the method: (§1)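 Compounds were serially diluted twofold in broth, added to dishes, then mixed with molten agar to give 0.03–128 μg/mL final. Strains grown overnight in nutrient, brain heart infusion or HTM broth were diluted and spotted at 10^4 CFU/dot. Plates were incubated at 35° C. for 18–24 hours before MIC reading.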

[2] = test system: Escherichia coli ATCC 25922; details: ATCC 25922
Summary of the method: as §1

[3] = test system: Pseudomonas aeruginosa ATCC 27853; details: ATCC 27853
Summary of the method: as §1

[4] = test system: Staphylococcus epidermidis ATCC 12228; details: ATCC 12228
Summary of the method: as §1

[5] = test system: Klebsiella pneumoniae ATCC BAA-2146 (NDM-1); experiment: Antibacterial activity, MIC by dish double dilution method; details: ATCC BAA-2146
Summary of the method: as §1

[6] = Nephrotoxicity test, renal cytotoxicity by MTT method; details: African green monkey
Description: African green monkey kidney cells (Vero cells) were cultured in MEM medium (Hyclone), 10% fetal calf serum (Invitrogen) was added before use, cultured at 37° C. under 5% CO2.
Experiment was carried out using MTT method. After digestion, cells in logarithmic growth phase were counted, then the cells were inoculated in a 96-well culture plate. After incubation for 24 h to be adherent, cells were treated with a concentration gradient of a compound of the invention (e.g., a compound prepared in the Embodiments) and the controls. After 72 h, the culture solution was removed, 100 uL of MTT reagent at a concentration of 0.5 mg/ml was added, the medium was removed after incubating for 3 hours in a 37° C. incubator. Add 150 μL DMSO solvent to each well, mix for 3 min, after which the absorbance at 570 nm (A) was measured with a microplate reader.
Cell viability %=(Adosed cell−Abackground)/(Acontrol cell−Abackground)×100%. The average value of 3 parallel wells was taken for each detection point, and the inhibition curve was drawn to calculate the IC50 value.
The African green monkey kidney cells (Vero cells) used in the experiment were from the Cell Resource Center of the Institute of Basic Medicine, Chinese Academy of Medical Sciences.

MIC A. baumannii ATCC 19606 [1] [µg/mL] | MIC E. coli ATCC 25922 [2] [µg/mL] | MIC P. aeruginosa ATCC 27853 [3] [µg/mL] | MIC S. epidermidis ATCC 12228 [4] [µg/mL] | MIC K. pneumoniae ATCC BAA-2146 (NDM-1) [5] [µg/mL] | Compound | IC50 at 72 h [6] [µg/mL]
1 (≈ 0.821 µM) | 1 (≈ 0.821 µM) | 2 (≈ 1.64 µM) | 128 (≈ 105 µM) | 2 (≈ 1.64 µM) | CC[C@H](C)CCCCC(=O)N[C@@H](CCN)C(=O)N[C@H](C(=O)N[C@@H](CCN)C(=O)N[C@H]1CCNC(=O)[C@H]([C@@H](C)O)NC(=O)[C@H](CCN)NC(=O)[C@H](CCN)NC(=O)[C@H](CC(C)C)NC(=O)[C@@H](Cc2ccc(N)cc2)NC(=O)[C@H](CCN)NC1=O)[C@@H](C)O [Compound 11, (S)-6-methyloctanoyl-Dab-Thr-Dab-ring(4-10)[Dab-Dab-D-Phe(4-NH2)-Lue-Dab-Dab-Thr]] (X2-[Dab]T[Dab][Dab][Dab][dPhe(4-NH2)]L[Dab][Dab]T; lactam 4-C) | 166 ± 15.7 (≈ 137 µM)
0.25 (≈ 0.203 µM) | 0.5 (≈ 0.407 µM) | 2 (≈ 1.63 µM) | 16 (≈ 13 µM) | 1 (≈ 0.814 µM) | CC[C@H](C)CCCCC(=O)N[C@@H](CCN)C(=O)N[C@H](C(=O)N[C@@H](CCN)C(=O)N[C@H]1CCNC(=O)[C@H]([C@@H](C)O)NC(=O)[C@H](CCN)NC(=O)[C@H](CCN)NC(=O)[C@H](CC(C)C)NC(=O)[C@@H](Cc2ccc(C#N)cc2)NC(=O)[C@H](CCN)NC1=O)[C@@H](C)O [Compound 13, (S)-6-methyloctanoyl-Dab-Thr-Dab-ring(4-10)[Dab-Dab-D-Phe(4-CN)-Lue-Dab-Dab-Thr]] (X2-[Dab]T[Dab][Dab][Dab][dPhe(4-CN)]L[Dab][Dab]T; lactam 4-C) | 186 ± 11.3 (≈ 151 µM)
1 (≈ 0.864 µM) | 0.5 (≈ 0.432 µM) | 1 (≈ 0.864 µM) | >128 | 1 (≈ 0.864 µM) | CC[C@H](C)CCCCC(=O)N[C@@H](CCN)C(=O)N[C@H](C(=O)N[C@H](CCN)C(=O)N[C@H]1CCNC(=O)[C@H]([C@@H](C)O)NC(=O)[C@H](CCN)NC(=O)[C@H](CCN)NC(=O)[C@H]([C@@H](C)O)NC(=O)[C@@H](CC(C)C)NC(=O)[C@H](CCN)NC1=O)[C@@H](C)O [Compound 30, (S)-6-methyloctanoyl-Dab-Thr-D-Dab-ring(4-10)[Dab-Dab-D-Leu-Thr-Dab-Dab-Thr]] (X2-[Dab]T[dDab][Dab][Dab][dL]T[Dab][Dab]T; lactam 4-C) | 145 ± 12.1 (≈ 125 µM)

Further lines, the compound ahead of its results:

Compound | MIC A. baumannii ATCC 19606 [1] [µg/mL] | MIC E. coli ATCC 25922 [2] [µg/mL] | MIC P. aeruginosa ATCC 27853 [3] [µg/mL] | MIC S. epidermidis ATCC 12228 [4] [µg/mL] | MIC K. pneumoniae ATCC BAA-2146 (NDM-1) [5] [µg/mL] | IC50 at 72 h [6] [µg/mL]
CCCCC(=O)CC(=O)N[C@@H](CCN)C(=O)N[C@H](C(=O)N[C@@H](CCN)C(=O)N[C@H]1CCNC(=O)[C@H]([C@@H](C)O)NC(=O)[C@H](CCN)NC(=O)[C@H](CCN)NC(=O)[C@H](CC(C)C)NC(=O)[C@@H](Cc2ccccc2)NC(=O)[C@H](CCN)NC1=O)[C@@H](C)O [Compound 4, 3-oxoheptanoyl-Dab-Thr-Dab-ring(4-10)[Dab-Dab-D-Phe-Lue-Dab-Dab-Thr]] (X3-[Dab]T[Dab][Dab][Dab][dF]L[Dab][Dab]T; lactam 4-C) | 2 (≈ 1.68 µM) | 0.5 (≈ 0.42 µM) | 2 (≈ 1.68 µM) | 128 (≈ 108 µM) | 2 (≈ 1.68 µM) | 110 ± 9.08 (≈ 92.2 µM)
CCCCCC(=O)CC(=O)N[C@@H](CCN)C(=O)N[C@H](C(=O)N[C@@H](CCN)C(=O)N[C@H]1CCNC(=O)[C@H]([C@@H](C)O)NC(=O)[C@H](CCN)NC(=O)[C@H](CCN)NC(=O)[C@H](CC(C)C)NC(=O)[C@@H](Cc2ccccc2)NC(=O)[C@H](CCN)NC1=O)[C@@H](C)O [Compound 5, 3-oxooctanoyl-Dab-Thr-Dab-ring(4-10)[Dab-Dab-D-Phe-Lue-Dab-Dab-Thr]] (X1-[Dab]T[Dab][Dab][Dab][dF]L[Dab][Dab]T; lactam 4-C) | 2 (≈ 1.66 µM) | 0.5 (≈ 0.415 µM) | 1 (≈ 0.831 µM) | 32 (≈ 26.6 µM) | 0.5 (≈ 0.415 µM) | 93.7 ± 7.38 (≈ 77.9 µM)
